Test results from ChEMBL document CHEMBL1201862, “PubChem BioAssay data set” (2004).
Active and inactive are the calls of the source.

Assays:
[1] = target: T1, Heat shock factor protein 1 (Mus musculus, UniProt P38532); test: HSF1 potentiators in luciferase reporter cells, confirmation, cell-based, NIH3T3, luminescence, dose retest (AID 435004); assay type: functional;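 further: stress induced by proteasome inhibitor MG132 added 30 min after compound; luciferase reporter driven by HSF1 response element in NIH3T3 cells; actives raise luminescence as potentiators of the MG132 stress response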
T1 sequence (P38532 whole entry): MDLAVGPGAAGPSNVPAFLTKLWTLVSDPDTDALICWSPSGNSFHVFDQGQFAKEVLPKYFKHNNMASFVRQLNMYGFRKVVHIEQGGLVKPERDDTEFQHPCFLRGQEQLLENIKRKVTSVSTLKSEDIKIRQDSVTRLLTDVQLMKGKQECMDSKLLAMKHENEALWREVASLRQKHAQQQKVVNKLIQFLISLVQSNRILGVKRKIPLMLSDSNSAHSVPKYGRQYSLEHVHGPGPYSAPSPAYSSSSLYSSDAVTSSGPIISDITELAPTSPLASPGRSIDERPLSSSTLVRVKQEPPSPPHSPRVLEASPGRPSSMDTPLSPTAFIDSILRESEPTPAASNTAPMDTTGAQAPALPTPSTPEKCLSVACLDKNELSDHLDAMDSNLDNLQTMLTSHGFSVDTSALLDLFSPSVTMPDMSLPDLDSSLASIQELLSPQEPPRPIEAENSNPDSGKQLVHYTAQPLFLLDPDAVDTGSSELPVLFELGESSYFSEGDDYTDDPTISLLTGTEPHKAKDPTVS

[2] = target: T2, Corticotropin-releasing factor receptor 2/Corticotropin-releasing factor-binding protein (Homo sapiens, UniProt P24387+Q13324); test: activators of CRF receptor 2 with binding protein – uHTS hits, confirmation (AID 602473); assay type: functional; details: read-out: EC50_Mean
T2 sequence (Q13324 whole entry): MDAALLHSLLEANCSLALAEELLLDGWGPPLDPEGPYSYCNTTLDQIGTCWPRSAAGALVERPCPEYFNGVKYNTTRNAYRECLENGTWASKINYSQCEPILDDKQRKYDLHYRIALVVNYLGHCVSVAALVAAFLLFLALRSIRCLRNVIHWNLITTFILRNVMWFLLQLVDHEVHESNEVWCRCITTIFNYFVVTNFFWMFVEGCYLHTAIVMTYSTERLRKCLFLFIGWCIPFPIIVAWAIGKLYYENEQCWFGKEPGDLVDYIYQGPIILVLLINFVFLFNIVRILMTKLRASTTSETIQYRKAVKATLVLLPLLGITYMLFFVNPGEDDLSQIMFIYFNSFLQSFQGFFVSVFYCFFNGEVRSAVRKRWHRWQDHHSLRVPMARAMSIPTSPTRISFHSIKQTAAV
T2 sequence (P24387 whole entry): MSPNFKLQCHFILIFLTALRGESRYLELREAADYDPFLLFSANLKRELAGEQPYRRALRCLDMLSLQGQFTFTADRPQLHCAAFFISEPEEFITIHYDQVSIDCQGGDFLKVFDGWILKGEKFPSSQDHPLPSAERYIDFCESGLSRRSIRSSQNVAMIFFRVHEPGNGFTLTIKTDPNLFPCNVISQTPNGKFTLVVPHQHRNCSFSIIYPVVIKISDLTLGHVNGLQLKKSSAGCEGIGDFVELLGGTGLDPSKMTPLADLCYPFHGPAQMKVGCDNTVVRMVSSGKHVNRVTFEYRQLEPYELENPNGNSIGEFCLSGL

[3] = target: T2, Corticotropin-releasing factor receptor 2/Corticotropin-releasing factor-binding protein; test: Dose Response confirmation of uHTS hits for small molecule antagonists of the CRF-binding protein and CRF-R2 receptor complex.; assay type: functional; details: read-out: IC50_Mean
Cytochrome P450 2C9 = Cytochrome P450 2C9 (Homo sapiens, UniProt P11712)
[4] = target: T3, RNA-binding protein pos-1 (Caenorhabditis elegans, UniProt G5EF15); test: inhibitors of POS-1/mex-3 RNA binding, dose response, biochemical, fluorescence polarization (AID 1964);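 further: purified POS-1 fused to maltose binding protein made in E. coli; potency of compounds blocking POS-1 binding to fluorescent RNA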
T3 sequence (G5EF15 whole entry): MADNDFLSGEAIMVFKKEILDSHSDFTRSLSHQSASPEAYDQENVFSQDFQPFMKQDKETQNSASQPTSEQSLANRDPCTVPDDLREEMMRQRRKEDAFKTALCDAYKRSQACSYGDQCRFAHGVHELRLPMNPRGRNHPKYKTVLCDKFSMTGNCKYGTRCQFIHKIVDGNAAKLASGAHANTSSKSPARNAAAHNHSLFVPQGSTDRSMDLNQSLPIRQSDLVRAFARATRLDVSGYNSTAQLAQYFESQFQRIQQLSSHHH

[5] = target: T4, Zinc finger protein mex-5 (Caenorhabditis elegans, UniProt Q9XUB2); test: MEX-5/TCR-2 RNA interaction inhibitors, dose response, biochemical, C. elegans, fluorescence polarization (AID 1960)
T4 sequence (Q9XUB2 whole entry): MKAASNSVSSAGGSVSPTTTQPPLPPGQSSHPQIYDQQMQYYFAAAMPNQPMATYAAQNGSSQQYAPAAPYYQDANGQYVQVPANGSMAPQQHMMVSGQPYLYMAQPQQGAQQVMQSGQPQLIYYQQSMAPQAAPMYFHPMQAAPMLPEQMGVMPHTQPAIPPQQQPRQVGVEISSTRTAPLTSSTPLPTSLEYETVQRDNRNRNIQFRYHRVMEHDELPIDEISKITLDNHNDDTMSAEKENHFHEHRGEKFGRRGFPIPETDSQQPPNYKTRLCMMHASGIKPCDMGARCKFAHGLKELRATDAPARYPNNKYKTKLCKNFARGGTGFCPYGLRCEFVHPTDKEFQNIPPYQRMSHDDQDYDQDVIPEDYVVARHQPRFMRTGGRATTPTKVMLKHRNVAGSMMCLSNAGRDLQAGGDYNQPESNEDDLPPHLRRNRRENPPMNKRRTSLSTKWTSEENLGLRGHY

Cytochrome P450 3A4 = Cytochrome P450 3A4 (Homo sapiens, UniProt P08684);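 further: CYP3A4 tested as one member of a cytochrome P450 panel screen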
cells [6] = assay type: functional, cell-based
cells [7] = assay type: functional, cell-based; remark: listed apart in the source
Cytochrome P450 2C19 = Cytochrome P450 2C19 (Homo sapiens, UniProt P33261); test: Cytochrome panel assay with activity outcomes. Panel member name: p450-cyp2c19 Compounds with AC50 equal or less than 10 uM are considered active; assay type: functional
[8] = HEp-2 cell cytotoxicity, dose response, cytotoxicity control for RSV inhibitor project, HTS (AID 2410); assay type: functional; details: human respiratory syncytial virus
Cytochrome P450 1A2 = target: T5, Cytochrome P450 1A2 (Homo sapiens, UniProt P05177);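 further: PubChem cytochrome P450 panel assay, CYP1A2 panel member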
T5 sequence (P05177 whole entry): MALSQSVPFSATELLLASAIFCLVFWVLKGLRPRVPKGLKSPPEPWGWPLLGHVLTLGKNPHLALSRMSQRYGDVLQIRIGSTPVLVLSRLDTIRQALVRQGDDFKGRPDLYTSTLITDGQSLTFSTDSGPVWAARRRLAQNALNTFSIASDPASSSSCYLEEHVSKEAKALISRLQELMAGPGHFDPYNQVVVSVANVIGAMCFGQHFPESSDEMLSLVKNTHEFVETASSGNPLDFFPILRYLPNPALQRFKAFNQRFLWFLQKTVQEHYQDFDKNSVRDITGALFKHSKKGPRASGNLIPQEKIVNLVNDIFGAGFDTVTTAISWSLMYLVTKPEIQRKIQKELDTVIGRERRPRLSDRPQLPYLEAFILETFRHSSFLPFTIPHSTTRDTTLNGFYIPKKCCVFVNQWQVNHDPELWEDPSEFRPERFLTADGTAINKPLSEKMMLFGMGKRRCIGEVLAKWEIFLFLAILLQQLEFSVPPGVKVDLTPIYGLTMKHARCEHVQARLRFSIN

Sequence of Cytochrome P450 2C9 (P11712 whole entry, the tested form may be a part): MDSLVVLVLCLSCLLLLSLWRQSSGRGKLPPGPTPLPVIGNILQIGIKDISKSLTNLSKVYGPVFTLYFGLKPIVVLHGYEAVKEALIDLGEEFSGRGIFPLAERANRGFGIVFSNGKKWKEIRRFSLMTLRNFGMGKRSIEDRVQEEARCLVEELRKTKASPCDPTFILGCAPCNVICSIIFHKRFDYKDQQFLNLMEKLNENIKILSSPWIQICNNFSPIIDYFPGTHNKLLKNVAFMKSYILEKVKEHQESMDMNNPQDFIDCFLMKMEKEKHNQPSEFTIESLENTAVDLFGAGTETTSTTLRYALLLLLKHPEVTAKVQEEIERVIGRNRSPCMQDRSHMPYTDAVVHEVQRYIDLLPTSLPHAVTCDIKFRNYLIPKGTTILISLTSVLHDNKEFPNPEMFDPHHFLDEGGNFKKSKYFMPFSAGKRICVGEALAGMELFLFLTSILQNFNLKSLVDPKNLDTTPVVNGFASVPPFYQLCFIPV
Sequence of Cytochrome P450 2C19 (P33261 whole entry): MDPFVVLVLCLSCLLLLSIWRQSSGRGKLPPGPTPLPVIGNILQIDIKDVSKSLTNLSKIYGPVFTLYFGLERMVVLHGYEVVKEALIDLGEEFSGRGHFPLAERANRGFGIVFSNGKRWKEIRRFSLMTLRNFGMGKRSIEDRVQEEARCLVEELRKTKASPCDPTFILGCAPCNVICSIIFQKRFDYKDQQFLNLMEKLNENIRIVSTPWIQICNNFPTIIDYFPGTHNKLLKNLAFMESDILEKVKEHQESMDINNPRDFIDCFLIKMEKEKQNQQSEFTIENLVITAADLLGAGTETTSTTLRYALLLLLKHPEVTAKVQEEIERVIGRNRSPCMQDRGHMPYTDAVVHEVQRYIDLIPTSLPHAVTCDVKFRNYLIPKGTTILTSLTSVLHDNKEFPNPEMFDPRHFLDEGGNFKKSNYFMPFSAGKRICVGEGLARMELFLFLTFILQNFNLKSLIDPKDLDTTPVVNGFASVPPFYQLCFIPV
Sequence of Cytochrome P450 3A4 (P08684 whole entry): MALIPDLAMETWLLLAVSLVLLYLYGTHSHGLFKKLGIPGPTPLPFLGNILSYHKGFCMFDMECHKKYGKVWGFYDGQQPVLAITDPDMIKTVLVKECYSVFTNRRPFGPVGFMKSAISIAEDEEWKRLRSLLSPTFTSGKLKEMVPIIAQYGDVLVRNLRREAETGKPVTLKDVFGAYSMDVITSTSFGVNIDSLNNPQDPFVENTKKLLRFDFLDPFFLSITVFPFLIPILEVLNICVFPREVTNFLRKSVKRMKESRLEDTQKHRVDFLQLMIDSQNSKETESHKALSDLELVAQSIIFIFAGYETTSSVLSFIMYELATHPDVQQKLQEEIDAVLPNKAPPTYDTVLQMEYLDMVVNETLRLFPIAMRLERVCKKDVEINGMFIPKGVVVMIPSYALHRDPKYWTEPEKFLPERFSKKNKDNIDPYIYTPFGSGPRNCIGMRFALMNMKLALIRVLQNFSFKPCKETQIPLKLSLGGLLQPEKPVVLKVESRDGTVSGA

## COc1ccc(/C=C2/SC(=O)N(CCNC(=O)C3COc4ccccc4O3)C2=O)cc1 (stereo not drawn)
[1]
  EC50: > 260 µM (inactive)

## Cc1cc(C)cc(C(=O)Nc2cccnc2Cl)c1
[2]
  EC50: > 53 µM (inactive)
[3]
  IC50: > 47.1 µM (inactive)

## COc1cc(C2Nc3ccc4ncccc4c3C3=C2C(=O)CCC3)cc(OC)c1OC (stereo not drawn)
[1]
  EC50: 29.3 µM (active)

## Cc1ccccc1C(=O)NNC(=O)c1ccc(F)cc1
Cytochrome P450 2C9
  AC50: inconclusive

## S=C1N=C(c2ccccc2)NCN1c1ccc(Br)cc1
[1]
  EC50: 236 µM (active)

## O=C(C1=C(O)C(=O)N(Cc2cccnc2)C1c1cccc(O)c1)c1ccc2c(c1)OCCO2 (stereo not drawn)
[1]
  EC50: > 260 µM (inactive)

## COC(=O)N/N=C(\C)c1cccs1
[2]
  EC50: > 53 µM (inactive)
[3]
  IC50: > 47.1 µM (inactive)

## CCCn1nc(C(=O)Nc2ccc(S(=O)(=O)Nc3nccs3)cc2)c2ccccc2c1=O
[4]
  EC50: > 150 µM (not active)
[5]
  EC50: 27.8 µM (active)

## COc1ccc2ccc(O)c(CN3CC=C(c4ccccc4)CC3)c2c1
[1]
  EC50: 34.6 µM (active)

## N#Cc1c(-c2ccccc2Cl)c2c([nH]c1=O)-c1ccccc1OC2
[4]
  EC50: > 300 µM (inconclusive)
[5]
  EC50: 38.8 µM (active)

## COc1ccc(C)cc1NC(=O)N1CCCc2ccccc21
[2]
  EC50: > 53 µM (inactive)
[3]
  IC50: > 47.1 µM (inactive)

## CC1CC2(CCCCC2)Nc2ccc3ccccc3c21 (stereo not drawn)
[1]
  EC50: > 260 µM (inactive)

## CN1C(=O)C(=CNc2ccc(N3CCOCC3)cc2)C(=O)N(C)C1=S
[4]
  EC50: > 300 µM (not active)
[5]
  EC50: > 300 µM (inconclusive)

## CNc1nc(-c2ccccc2)cc(C)c1S(C)(=O)=O
[1]
  EC50: > 260 µM (inactive)

## Cc1cc(NC(=O)c2ccc(S(=O)(=O)N(C)C)cc2)n(-c2ccccn2)n1
Cytochrome P450 2C9
  AC50: inconclusive

## O=S(=O)(NCc1cc(-c2ccccc2Cl)no1)c1ccc(Cl)cc1
Cytochrome P450 2C9
  AC50: inconclusive
Cytochrome P450 3A4
  AC50: 20 µM (inconclusive)

## O=[N+]([O-])c1cc(/C=N\O)ccc1Oc1ccc(F)cc1
[2]
  EC50: > 53 µM (inactive)
[3]
  IC50: 24.9 µM (active)

## O=C(NCC1COc2ccccc2O1)C1CCN(S(=O)(=O)c2cccc3nsnc23)CC1 (stereo not drawn)
Cytochrome P450 2C9
  AC50: inconclusive

## Cc1oc(-c2ccoc2)nc1CN(CC1CCC(=O)N1)C(C)C (stereo not drawn)
[1]
  EC50: > 260 µM (inactive)

## COc1ccc(NC(=S)c2ccc(N(C)C)cc2)cc1
[1]
  EC50: > 260 µM (inactive)
Cells [6]
  EC50: > 350 µM (not active)
Cells [7]
  EC50: 145 µM (active)

## Cc1cc(C)c(NC(=O)c2ccc(CNS(=O)(=O)c3cc(C(F)(F)F)ccc3Cl)cc2)c(C)c1
[2]
  EC50: > 53 µM (inactive)
[3]
  IC50: > 47.1 µM (inactive)

## O=P(/C(=N/O)N1CCOCC1)(N1CCOCC1)N1CCOCC1
[2]
  EC50: > 53 µM (inactive)
[3]
  IC50: > 47.1 µM (inactive)

## CCN(CC)S(=O)(=O)c1ccc(N2CCOCC2)c(NC(=O)c2cc3ccccc3oc2=O)c1
[1]
  EC50: > 260 µM (inactive)

## CCC(C)[C@H](NC(=O)N1CCn2c1nc1ccccc12)C(=O)NCc1ccc(OC)cc1 (stereo partly drawn)
[2]
  EC50: > 53 µM (inactive)
[3]
  IC50: > 47.1 µM (inactive)

## COCc1ccc(CN2CCC(C(=O)Nc3cccc(-c4cscn4)c3)CC2)o1
[2]
  EC50: > 53 µM (inactive)
[3]
  IC50: > 47.1 µM (inactive)

## Cc1ccc(C)n1CCN1CCN(CC(=O)Nc2cc(C(F)(F)F)ccc2Cl)CC1
Cytochrome P450 2C9
  AC50: inconclusive

## Cc1c(C)c2c(c(C)c1O)CC[C@@](C)(CCC[C@@H](C)CCC[C@@H](C)CCCC(C)C)O2
Cytochrome P450 2C9
  AC50: inconclusive
Cytochrome P450 2C19
  AC50: inconclusive

## NC(=Nc1ccccc1C(F)(F)F)Nc1nc(O)c2c(n1)CCC2
[1]
  EC50: > 260 µM (inactive)
[8]
  CC50: 46.9 µM (active)

## COc1ccc(CCN2C(=O)NC(=O)/C(=C\NNC(=O)c3ccncc3)C2=O)cc1OC
[5]
  EC50: 43.7 µM (active)

## N#Cc1cc(N)ccc1Sc1ccc(Cl)cc1
Cytochrome P450 2C9
  AC50: inconclusive

## CC(=O)NCCNc1ncncc1-c1ccccc1C
Cytochrome P450 2C9
  AC50: inconclusive
Cytochrome P450 1A2
  AC50: 25.1 µM (inconclusive)

## CN(C)c1cc(-c2ccc([N+](=O)[O-])cc2)oc(=O)c1Cl
[4]
  EC50: 49.5 µM (active)
[5]
  EC50: 165 µM (inconclusive)

## COC(=O)C1=COC(C)C2CN3CCc4c([nH]c5cc(OC)c(OC)cc45)C3CC12 (stereo not drawn)
[4]
  EC50: 15.5 µM (active)
[5]
  EC50: 14.4 µM (active)

## O=C(Nc1ccc(N2CCN(c3ccccc3)CC2)c(F)c1)C1CC1
[2]
  EC50: > 53 µM (inactive)
[3]
  IC50: > 47.1 µM (inactive)

## Cn1cc(C(=O)C(=O)N[C@H]2CN3CCC2CC3)c2ccccc21
Cytochrome P450 2C9
  AC50: inconclusive

## CCCCNC(=S)NNC(=O)c1cc(C)on1
[4]
  EC50: > 300 µM (not active)
[5]
  EC50: > 300 µM (not active)

## CCOc1ccc(Cc2nc(C)c(CC(=O)N3CCOCC3)c(O)n2)cc1
Cytochrome P450 2C9
  AC50: inconclusive
